Source: ChEMBL document CHEMBL4130450, “Mixed Aryl Phosphonate Prodrugs of a Butyrophilin Ligand” (ACS Med Chem Lett, 2017)
Activity calls are given as the source filed them. The rule behind the calls is not given here.

Columns and labels:
[1] = target: T1, Butyrophilin subfamily 3 member A1 (Homo sapiens, UniProt O00481); test: Binding affinity to BTN3A1 intracellular domain (unknown origin) at 250 uM by isothermal titration calorimetry
Target sequence in this assay (O00481 30-513 limits assumed): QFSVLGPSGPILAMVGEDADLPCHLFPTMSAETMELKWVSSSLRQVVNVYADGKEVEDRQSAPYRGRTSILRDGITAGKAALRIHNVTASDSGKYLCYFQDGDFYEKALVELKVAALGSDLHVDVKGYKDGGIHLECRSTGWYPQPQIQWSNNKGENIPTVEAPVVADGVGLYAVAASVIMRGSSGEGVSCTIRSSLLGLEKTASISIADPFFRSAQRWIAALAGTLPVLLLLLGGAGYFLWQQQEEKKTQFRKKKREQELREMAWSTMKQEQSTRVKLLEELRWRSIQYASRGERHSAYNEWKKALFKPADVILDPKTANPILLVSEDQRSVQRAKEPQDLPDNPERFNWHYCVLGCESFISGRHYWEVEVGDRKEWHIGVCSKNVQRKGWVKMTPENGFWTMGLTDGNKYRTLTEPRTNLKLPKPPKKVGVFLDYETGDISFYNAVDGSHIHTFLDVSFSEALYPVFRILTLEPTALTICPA

[2] = target: T1, Butyrophilin subfamily 3 member A1; test: Inhibition of HMBPP binding to BTN3A1 intracellular domain (unknown origin) at compound to HMBPP molar ratio of 100 by isothermal titration calorimetry
Target sequence in this assay (O00481 30-513 limits assumed): as above

[3] = Activation of BTN3A1 in human PBMC-derived Vgamma9Vdelta2 T cells assessed as induction of interleukin 2 stimulated cell proliferation by measuring increase in CD3 positive cells incubated for 3 days followed by 11 days incubation post compound wash out with subsequent stimulation with IL-2 every 3 days measured after 14 days by flow cytometry
[4] = target: T1, Butyrophilin subfamily 3 member A1; test: Activation of BTN3A1 in human PBMC-derived Vgamma9Vdelta2 T cells assessed as induction of interferon gamma production in response to K562 cells preincubated for 4 hrs […] followed by 11 days incubation post compound wash out with subsequent coculturing with Vgamma9Vdelta2 T cells for 20 hrs by ELISA; format: cell-based
Target sequence in this assay (O00481 whole entry, the tested form may be a part): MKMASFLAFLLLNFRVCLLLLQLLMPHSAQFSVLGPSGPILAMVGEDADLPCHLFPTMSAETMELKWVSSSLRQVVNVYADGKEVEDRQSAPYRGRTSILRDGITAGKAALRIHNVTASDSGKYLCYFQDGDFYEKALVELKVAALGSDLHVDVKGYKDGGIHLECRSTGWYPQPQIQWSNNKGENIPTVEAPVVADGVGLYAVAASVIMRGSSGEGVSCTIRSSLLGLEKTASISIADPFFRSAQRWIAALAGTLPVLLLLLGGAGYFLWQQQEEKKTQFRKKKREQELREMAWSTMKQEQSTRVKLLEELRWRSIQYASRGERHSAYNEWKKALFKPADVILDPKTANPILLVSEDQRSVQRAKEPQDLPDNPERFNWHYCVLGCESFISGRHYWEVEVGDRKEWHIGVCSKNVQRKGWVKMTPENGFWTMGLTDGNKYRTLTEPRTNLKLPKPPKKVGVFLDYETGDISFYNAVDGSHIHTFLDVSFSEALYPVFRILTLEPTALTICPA

Row | SMILES | Activity [1] | EC50 [4] [nM] | other results
1 | C/C(=C\CCP(=O)(O)Oc1ccccc1)CO | inactive |  | 
2 | C/C(=C\CCP(=O)(O)Oc1cccc2ccccc12)CO | inactive |  | inhibition [2]: inactive
3 | C/C(=C\CCP(=O)(O)O)CO |  |  | EC50 [3]: 4000 nM
4 | C/C(=C\CCP(=O)(COC(=O)C(C)(C)C)Oc1cccc2ccccc12)CO (stereo unspecified) |  | 9 | 
5 | C/C(=C\CCP(=O)(COC(=O)C(C)(C)C)OCOC(=O)C(C)(C)C)CO (stereo unspecified) |  | 24 | 
